Test results reported in patent US20230074545A1, “TREATMENT OF CANCER WITH CDK12/13 INHIBITORS” (Kinnate Biopharma Inc., priority 2019, published 2023).
Like-named read-outs stand apart in the source and are kept apart here.

Key:
HCC70 cells = assay: HCC70 cell proliferation (CellTiter-Glo); assay type: cell-based; details: Homo sapiens, read-out: Inhibition of Proliferation of HCC70 Cells (IC50 in M)
Protocol: HCC70 was the cell line used as a model of triple-negative breast cancer (TNBC). This cell line was obtained from ATCC and was initiated from a primary ductal carcinoma in 1992 (Catalog #CRL-2315; mammary gland primary ductal carcinoma). The HCC-70 tumor cell line was maintained in vitro as a monolayer culture in RPMI-1640 medium supplemented with 10% heat inactivated fetal bovine serum at 37° C. in an atmosphere of 5% CO2 in air.
(§1) Representative compounds were tested at different concentrations (from 4 μM to 126.4 pM; 0.5 log serial dilutions) for their ability to inhibit the proliferation of HCC70 cells. Cells were grown in ATCC-formulated RPMI-1640 Medium (ATCC 30-2001)+10% FBS. The cells were cultured at 37° C. in a humidified chamber in the presence of 5% CO2. Proliferation assays were conducted over a 72 hour time period.
(§2) Cells were cultured and maintained as described above, with cells always fed on the day prior to assay. Assays were run with a 2 hour compound exposure followed by a washout and then a 72 hour proliferation time or exposed to the test compounds for 72 hours with no washout of compound. DMSO was used as a control in all wells not receiving test compound and DMSO wells were used for plate normalization. Proliferation and survival of cells was quantified based on the amount of total ATP following cell lysis as determined by using a standard assay kit used according to manufacturer's instructions. Experiments were performed in the same media used by each cell type for growth and maintenance. Cells (5×10^4) were plated in 96 well plates for compound exposure. CellTiter-Glo® (Promega Corporation, Madison, Wis. USA) was used to assess the anti-proliferative effects of the compounds following manufacturer's directions and utilizing the reagents supplied with the CellTiter-Glo® kit.

OVCAR-3 cells = assay: OVCAR-3 cell proliferation (CellTiter-Glo); assay type: cell-based; details: Homo sapiens, read-out: Inhibition of proliferation of OVCAR3 cells (IC50 in M)
From the text: OVCAR-3 was used as the cell line to model for ovarian cancer in vitro and in vivo. This cell line was obtained from ATCC (Catalog #HTB-161) and is an adenocarcinoma line from the malignant ascites of a patient with progressive adenocarcinoma of the ovary and embodies a preclinical model of high-grade, serous ovarian cancer (HGSOC). OVCAR-3 has been deemed an appropriate model system in which to study drug resistance in ovarian cancer, and the presence of hormone receptors should be useful for the evaluation of hormonal therapy. OVCAR-3 is resistant to clinically relevant concentrations of adriamycin, melphalan and cisplatin.
as §1, with “Compounds 1-5” for “Representative compounds”, “OVCAR-3” for “HCC70”
as §2

CDK12 = biological target: T1, CDK12 (Homo sapiens, UniProt Q9NYV4); assay: Radiometric kinase assay (33PanQinase); assay type: biochemical; details: read-out: Inhibition of CDK Activity (molar inhibition in a radiometric assay)
T1 construct: either as full-length or enzymatically active fragments; purchased ProQinase GmbH (Reaction Biology)
Protocol: (§3) The compounds 1-5 (see Table 1) were assayed for kinase activity at ProQinase (ProQinase GmbH, Reaction Biology; Freiburg, Germany) using their commercially available radiometric kinase assay services. Briefly, the compounds were provided as solids and were dissolved to 1×10^−03 M/100% DMSO stock solutions on the day of assay. All protein kinases were provided by ProQinase and were expressed in Sf9 insect cells or in E. coli as recombinant GST-fusion proteins or His-tagged proteins, either as full-length or enzymatically active fragments. All kinases were produced from human cDNAs and purified by either GSH-affinity chromatography or immobilized metal. The purity of the protein kinases was examined by SDS-PAGE/Coomassie staining, the identity was checked by mass spectroscopy. A radiometric protein kinase assay (^33PanQinase® Activity Assay) was used for measuring the kinase activity of the protein kinase. All kinase assays were performed in 96-well FlashPlates™ from PerkinElmer (Boston, Mass., USA) in a 50 microliter reaction volume. The reaction cocktail was pipetted in four steps in the following order: 1) 25 microliter of assay buffer (standard buffer/[gamma-^33P]-ATP); 2) 10 microliter of ATP solution (in H2O); 3) 5 microliter of test compound (in 10% DMSO); 4) 10 microliter of enzyme/substrate mixture.
(§4) As a parameter for assay quality, the Z′-factor (Zhang et al., J. Biomol. Screen. 2: 67-73, 1999) for the low and high controls of each assay plate (n=8) was used. ProQinase's criterion for repetition of an assay plate is a Z′-factor below 0.4.

CDK13 = biological target: T2, CDK13 (Homo sapiens, UniProt Q14004); assay: Radiometric kinase assay (33PanQinase); assay type: biochemical; details: read-out: Inhibition of CDK Activity (molar inhibition in a radiometric assay)
T2 construct: either as full-length or enzymatically active fragments; purchased ProQinase GmbH (Reaction Biology)
Protocol: as §3, §4

CDK9 = biological target: T3, CDK9 (Homo sapiens, UniProt P50750); assay: Radiometric kinase assay (33PanQinase); assay type: biochemical; details: read-out: Inhibition of CDK Activity (molar inhibition in a radiometric assay)
T3 construct: either as full-length or enzymatically active fragments; purchased ProQinase GmbH (Reaction Biology); host or cells: Sf9 insect cells or E. coli
Protocol: as §3, §4

CDK2 = biological target: T4, CDK2 (Homo sapiens, UniProt P24941); assay: Radiometric kinase assay (33PanQinase); assay type: biochemical; details: read-out: Inhibition of CDK Activity (molar inhibition in a radiometric assay)
T4 construct: either as full-length or enzymatically active fragments; purchased ProQinase GmbH (Reaction Biology); host or cells: Sf9 insect cells or E. coli
Protocol: as §3, §4

CDK7 = biological target: T5, CDK7 (Homo sapiens, UniProt P50613); assay: Radiometric kinase assay (33PanQinase); assay type: biochemical; details: read-out: Inhibition of CDK Activity (molar inhibition in a radiometric assay)
T5 construct: either as full-length or enzymatically active fragments; purchased ProQinase GmbH (Reaction Biology); host or cells: Sf9 insect cells or E. coli
Protocol: as §3, §4

RNA polymerase II [1] = assay: Phosphorylation of RNA polymerase II (pS2/S2) in HCC70 xenograft; assay type: in vivo, CB-17 SCID mice; details: intravenous
Protocol: The ability of compound 4 and compound 5 to inhibit phosphorylation of RNA polymerase II at the S2 unit was analyzed in a mouse xenograft model of triple-negative breast cancer. CB-17 SCID mice were inoculated with the HCC70 cells as the in vivo model for triple negative breast cancer. Each mouse was inoculated subcutaneously on the right flank with HCC70 tumor cells (5×106) in 0.1 mL of RPMI-1640 Medium and Matrigel mixture (1:1 ratio) for tumor development. The treatment started when the mean tumor size reached approximately 100-150 mm^3. Mice were treated intravenously with vehicle only, 20 mg/kg of compound 4, 25 mg/kg of compound 4, 10 mg/kg of compound 5, or 25 mg/kg of compound 5 for 2 hours. Measurements were taken at 0.5 hours, 6 hours and 24 hours after the dose. The amount of phosphorylated RNA polymerase II and the total amount of RNA polymerase II was analyzed. The values were normalized by taking the ratio of the phosphorylated RNA polymerase II to the total RNA polymerase II (pS2/S2).

RNA polymerase II [2] = assay: Inhibition of phosphorylation of RNA polymerase II in NCI-H82 cells; assay type: cell-based; details: Homo sapiens, 2 hours, phosphorylated/total RNA polymerase II
Protocol: CDK12 and CDK13 phosphorylate RNA polymerase II. The ability of compound 1 to inhibit phosphorylation of RNA polymerase II was analyzed in NCI-H82 cells. 200,000 cells were plated in each well of a 96 well MSD plate. Cells were treated with compound 1, THZ531 (a positive control), or E9 at concentrations between 4 μM to 126.4 pM (0.5 log serial dilutions) for 2 hours. THZ531 and E9 are further discussed in Gao et al, Cell Chemical Biology 2017. The amount of phosphorylated RNA polymerase II and the total amount of RNA polymerase II was analyzed using antibodies. The values were normalized by taking the ratio of the phosphorylated RNA polymerase II to the total RNA polymerase II. As depicted in FIG. 3A (THZ531), FIG. 3B (Compound 1), and Table 6, increasing the concentration of compound 1 results in a dose-specific increase in the inhibition of phosphorylation of RNA polymerase II.

[3] = HCC70 (no washout), exposed for 72 hours
[4] = HCC70 (w/washout), 2 hour exposure, washout, 72 hour proliferation
[5] = OVCAR-3 (no washout), exposed for 72 hours
[6] = OVCAR-3 (w/washout), 2 hour exposure, washout, 72 hour proliferation

T5 sequence (P50613 whole entry, the tested form may be a part): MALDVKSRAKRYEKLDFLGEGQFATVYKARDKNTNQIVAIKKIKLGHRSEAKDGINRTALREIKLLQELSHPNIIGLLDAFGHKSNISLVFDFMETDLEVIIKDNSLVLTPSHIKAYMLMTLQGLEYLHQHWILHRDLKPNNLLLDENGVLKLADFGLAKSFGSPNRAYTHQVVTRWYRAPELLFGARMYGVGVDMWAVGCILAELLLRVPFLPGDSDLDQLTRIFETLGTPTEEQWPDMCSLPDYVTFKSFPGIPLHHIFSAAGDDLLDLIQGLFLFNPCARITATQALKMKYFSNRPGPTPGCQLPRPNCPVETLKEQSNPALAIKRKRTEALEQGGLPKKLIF
T5 sequence (P51946 whole entry partner, the tested form may be a part): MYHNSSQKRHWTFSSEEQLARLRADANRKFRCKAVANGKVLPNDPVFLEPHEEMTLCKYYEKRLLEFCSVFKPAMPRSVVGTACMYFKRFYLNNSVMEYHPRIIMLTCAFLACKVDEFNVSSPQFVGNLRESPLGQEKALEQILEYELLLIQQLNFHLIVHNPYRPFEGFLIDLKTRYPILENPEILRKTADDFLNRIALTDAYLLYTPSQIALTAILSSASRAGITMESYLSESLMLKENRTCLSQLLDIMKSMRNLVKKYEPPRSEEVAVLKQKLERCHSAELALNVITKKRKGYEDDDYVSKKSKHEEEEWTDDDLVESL
T5 sequence (P51948 whole entry partner, the tested form may be a part): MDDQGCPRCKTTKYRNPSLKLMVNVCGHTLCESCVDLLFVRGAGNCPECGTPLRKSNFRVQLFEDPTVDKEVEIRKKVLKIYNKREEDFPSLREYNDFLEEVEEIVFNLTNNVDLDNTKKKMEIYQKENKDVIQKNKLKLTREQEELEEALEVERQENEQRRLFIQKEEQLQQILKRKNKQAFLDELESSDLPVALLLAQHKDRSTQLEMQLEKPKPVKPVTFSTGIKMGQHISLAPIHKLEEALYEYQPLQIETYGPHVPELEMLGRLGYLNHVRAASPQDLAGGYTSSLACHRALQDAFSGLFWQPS
T2 sequence (Q14004 whole entry, the tested form may be a part): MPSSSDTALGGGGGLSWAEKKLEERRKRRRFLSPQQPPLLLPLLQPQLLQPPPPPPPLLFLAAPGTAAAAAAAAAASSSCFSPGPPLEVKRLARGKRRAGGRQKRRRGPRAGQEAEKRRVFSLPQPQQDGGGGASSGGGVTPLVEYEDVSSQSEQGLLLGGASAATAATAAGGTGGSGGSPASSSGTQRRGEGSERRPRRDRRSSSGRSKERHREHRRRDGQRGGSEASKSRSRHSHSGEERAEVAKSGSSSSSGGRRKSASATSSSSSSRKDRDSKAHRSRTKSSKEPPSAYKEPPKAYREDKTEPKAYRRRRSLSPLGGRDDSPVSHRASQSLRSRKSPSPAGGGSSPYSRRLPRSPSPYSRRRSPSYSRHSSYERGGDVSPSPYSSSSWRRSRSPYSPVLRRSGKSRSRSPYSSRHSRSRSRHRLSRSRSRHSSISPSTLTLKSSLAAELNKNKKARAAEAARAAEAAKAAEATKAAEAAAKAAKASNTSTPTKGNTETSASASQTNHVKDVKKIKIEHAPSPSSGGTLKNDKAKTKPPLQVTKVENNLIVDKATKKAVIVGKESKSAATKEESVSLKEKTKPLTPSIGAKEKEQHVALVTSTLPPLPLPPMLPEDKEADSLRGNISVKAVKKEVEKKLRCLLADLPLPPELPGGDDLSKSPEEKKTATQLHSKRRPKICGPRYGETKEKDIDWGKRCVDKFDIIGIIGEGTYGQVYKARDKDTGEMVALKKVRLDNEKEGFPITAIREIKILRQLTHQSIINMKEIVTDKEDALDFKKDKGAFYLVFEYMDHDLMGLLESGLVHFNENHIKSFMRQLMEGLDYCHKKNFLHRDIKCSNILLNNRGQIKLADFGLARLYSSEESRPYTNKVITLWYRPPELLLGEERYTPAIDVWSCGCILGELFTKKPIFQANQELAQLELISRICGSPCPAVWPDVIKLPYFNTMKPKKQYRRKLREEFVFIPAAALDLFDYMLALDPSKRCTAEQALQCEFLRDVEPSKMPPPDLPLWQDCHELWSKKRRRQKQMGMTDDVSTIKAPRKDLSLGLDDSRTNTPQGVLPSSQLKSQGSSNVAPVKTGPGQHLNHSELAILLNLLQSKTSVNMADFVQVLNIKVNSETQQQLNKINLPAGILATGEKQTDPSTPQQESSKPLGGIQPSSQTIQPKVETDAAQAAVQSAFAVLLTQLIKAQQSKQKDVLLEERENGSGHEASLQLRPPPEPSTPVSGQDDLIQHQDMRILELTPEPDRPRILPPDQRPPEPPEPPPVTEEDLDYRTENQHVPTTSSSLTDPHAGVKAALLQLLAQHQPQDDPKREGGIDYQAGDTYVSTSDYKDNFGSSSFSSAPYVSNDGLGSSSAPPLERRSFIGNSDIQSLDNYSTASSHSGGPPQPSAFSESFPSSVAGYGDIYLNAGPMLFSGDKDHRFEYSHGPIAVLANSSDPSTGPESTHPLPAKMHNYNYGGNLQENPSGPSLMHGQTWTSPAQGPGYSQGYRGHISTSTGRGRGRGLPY
T2 sequence (O75909 whole entry partner, the tested form may be a part): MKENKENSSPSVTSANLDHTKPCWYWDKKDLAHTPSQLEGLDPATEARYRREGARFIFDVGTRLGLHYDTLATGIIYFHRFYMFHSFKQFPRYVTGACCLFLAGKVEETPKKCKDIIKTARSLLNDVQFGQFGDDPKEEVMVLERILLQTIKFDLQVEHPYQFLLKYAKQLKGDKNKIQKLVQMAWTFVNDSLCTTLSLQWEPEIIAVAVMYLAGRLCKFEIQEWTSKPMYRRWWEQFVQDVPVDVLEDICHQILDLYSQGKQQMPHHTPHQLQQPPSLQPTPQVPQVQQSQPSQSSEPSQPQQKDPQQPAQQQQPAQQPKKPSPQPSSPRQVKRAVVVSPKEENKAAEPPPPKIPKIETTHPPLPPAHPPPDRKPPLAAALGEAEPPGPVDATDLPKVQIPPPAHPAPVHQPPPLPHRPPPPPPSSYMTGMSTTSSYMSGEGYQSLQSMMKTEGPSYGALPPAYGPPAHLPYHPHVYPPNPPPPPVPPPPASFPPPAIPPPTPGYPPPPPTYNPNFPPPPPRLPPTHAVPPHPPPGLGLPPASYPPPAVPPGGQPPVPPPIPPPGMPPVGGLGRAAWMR
T1 sequence (Q9NYV4 whole entry, the tested form may be a part): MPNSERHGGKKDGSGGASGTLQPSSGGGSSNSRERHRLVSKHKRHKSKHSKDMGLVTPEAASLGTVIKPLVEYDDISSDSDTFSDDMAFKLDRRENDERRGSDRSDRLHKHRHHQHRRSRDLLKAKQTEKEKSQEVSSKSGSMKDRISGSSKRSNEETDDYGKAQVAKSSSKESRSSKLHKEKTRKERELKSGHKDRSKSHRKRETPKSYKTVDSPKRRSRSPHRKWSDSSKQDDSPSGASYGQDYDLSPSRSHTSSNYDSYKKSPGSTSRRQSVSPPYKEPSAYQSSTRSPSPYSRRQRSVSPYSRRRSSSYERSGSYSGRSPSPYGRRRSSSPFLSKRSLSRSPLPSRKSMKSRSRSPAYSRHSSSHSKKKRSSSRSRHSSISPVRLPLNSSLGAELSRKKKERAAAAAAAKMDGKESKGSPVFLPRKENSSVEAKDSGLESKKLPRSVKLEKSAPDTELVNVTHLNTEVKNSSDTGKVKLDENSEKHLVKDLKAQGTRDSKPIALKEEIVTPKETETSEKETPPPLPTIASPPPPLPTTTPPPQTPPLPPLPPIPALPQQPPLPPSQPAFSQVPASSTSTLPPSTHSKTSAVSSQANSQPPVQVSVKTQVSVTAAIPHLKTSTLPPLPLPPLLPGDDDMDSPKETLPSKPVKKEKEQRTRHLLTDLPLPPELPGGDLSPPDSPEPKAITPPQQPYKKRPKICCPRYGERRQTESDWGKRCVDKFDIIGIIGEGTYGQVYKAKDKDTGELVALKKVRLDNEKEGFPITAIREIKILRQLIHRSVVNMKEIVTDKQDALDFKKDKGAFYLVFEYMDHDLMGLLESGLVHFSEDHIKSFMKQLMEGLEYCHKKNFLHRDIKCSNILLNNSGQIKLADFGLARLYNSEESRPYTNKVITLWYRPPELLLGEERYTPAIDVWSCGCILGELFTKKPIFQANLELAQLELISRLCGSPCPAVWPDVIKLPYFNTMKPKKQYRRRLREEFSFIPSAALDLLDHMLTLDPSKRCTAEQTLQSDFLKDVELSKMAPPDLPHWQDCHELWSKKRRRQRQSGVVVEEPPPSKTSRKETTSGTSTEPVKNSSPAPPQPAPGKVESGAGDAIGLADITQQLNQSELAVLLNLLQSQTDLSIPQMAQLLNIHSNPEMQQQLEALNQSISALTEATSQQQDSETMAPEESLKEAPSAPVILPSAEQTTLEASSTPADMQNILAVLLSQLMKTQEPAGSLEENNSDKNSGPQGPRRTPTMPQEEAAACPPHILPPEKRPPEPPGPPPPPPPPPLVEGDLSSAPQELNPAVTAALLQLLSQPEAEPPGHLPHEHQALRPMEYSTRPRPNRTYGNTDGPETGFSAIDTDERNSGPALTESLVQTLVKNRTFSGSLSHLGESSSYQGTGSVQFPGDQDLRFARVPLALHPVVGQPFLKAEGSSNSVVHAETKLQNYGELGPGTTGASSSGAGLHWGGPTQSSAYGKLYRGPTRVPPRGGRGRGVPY
T1 sequence (O75909 whole entry partner, the tested form may be a part): as the sequence (O75909 whole entry partner, the tested form may be a part) above

IC50 (RNA polymerase II [2])	Structure (SMILES)	IC50 (HCC70 cells; [3])	IC50 (HCC70 cells; [4])	IC50 (OVCAR-3 cells; [5])	IC50 (OVCAR-3 cells; [6])	IC50 (CDK12)	IC50 (CDK13)	IC50 (CDK9)	IC50 (CDK2)	IC50 (CDK7)	decrease in the pS2/S2 ratio, 25 mg/kg versus 10 mg/kg (RNA polymerase II [1]; all time points (0.5, 6, 24 hours))	pS2/S2 compared to treatment with the vehicle alone (RNA polymerase II [1]; compound 4 20 or 25 mg/kg, compound 5 10 or 25 mg/kg, 0.5, 6 and 24 hours after the dose)
	C#Cc1cnc(N[C@@H]2CCN(C(=O)c3ccc(NC(=O)C=C)cc3)C2)nc1 [Compound 5, (R)-N-(4-(3-((5-ethynylpyrimidin-2-yl)amino)pyrrolidine-1-carbonyl)phenyl)acrylamide]	19.3 nM	82.1 nM	10.1 nM	103 nM	59.3 nM	104 nM	1370 nM	3370 nM	3770 nM	greater decrease	reduced the pS2/S2 at all time points
	C=CC(=O)Nc1ccc(C(=O)N2CC[C@@H](Nc3ncc(Cl)cn3)C2)cc1 [Compound 3, (R)-N-(4-(3-((5-chloropyrimidin-2-yl)amino)pyrrolidine-1-carbonyl)phenyl)acrylamide]	10.1 nM	110 nM	7.45 nM	33.7 nM	96.7 nM	379 nM	1170 nM	7930 nM	2790 nM		
	C=CC(=O)N(C)c1ccc(C(=O)N2CC[C@@H](Nc3ncc(Cl)c(OC)n3)C2)cc1 [Compound 2, (R)-N-(4-(3-((5-chloro-4-methoxypyrimidin-2-yl)amino)pyrrolidine-1-carbonyl)phenyl)-N-methylacrylamide]	11.3 nM	38 nM	7.63 nM		54.4 nM	324 nM	1320 nM	11300 nM	518 nM		
312 nM	CN(C)C/C=C/C(=O)Nc1ccc(C(=O)N2CCC[C@@H](Nc3ncc(Cl)c(-c4c[nH]c5ccccc45)n3)C2)cc1 [THZ531, reference compound]											
